From ChEMBL document CHEMBL5352382, “Synthesis and evaluation of imidazo[1,2-a]pyrazine derivatives as small molecule Gαq/11 inhibitors against uveal melanoma” (Eur J Med Chem, 2022) come the findings set out here.

What is called solubility is how much of the substance goes into solution per volume. By half-life is commonly meant how long it takes for the measured level to halve. The inhibition is the drop in the measured response relative to a control, in per cent. The IC50 is the point on the concentration scale where inhibition reaches its midpoint.

Calls of active or inactive are those of the source. The calls are words filed in the database; no cut-off is given here.

A short description of data set [1]: Metabolic stability in human liver microsomes assessed as intrinsic clearance preincubated for 15 mins followed by NADPH addition and measured upto 45 mins by LC-MS/MS analysis. The format is ADME, Microsome. The settings on record: time < 60 min, read-out: CLH. For orientation: Liver microsomes are a subcellular fraction often used to study metabolism.
Data set [2] is described as follows: Chemical stability of the compound assessed as compound remaining measured after 7 days by LC-MS analysis. To be noted: time 7 day; read-out: Stability. The format is physicochemical.
Data set [3] can be described thus: Aqueous solubility of the compound in deionized water at 25 degreeC by HPLC analysis. The format is physicochemical.
Data set [4] in a line: Metabolic stability in human liver microsomes assessed as half life preincubated for 15 mins followed by NADPH addition and measured upto 45 mins by LC-MS/MS analysis. To be noted: time < 60 min. The format is ADME, Microsome.
The test system of data set [5] is MP41. The data set is described as follows: Inhibition of colony formation in human MP41 cells assessed as inhibition of cell proliferation incubated for 14 days with replacement with fresh medium for every 3 days by crystal violet staining based analysis. The format is functional. The settings on record: dose 1-5 µM, time 14.0 day.
Data set [6] deals with 921. The data set is described as follows: Antiproliferative activity against human 921 cells assessed as reduction in cell viability at 1.25 uM measured after 72 hrs by CCK-8 method. The format is functional, cell-based. On the technique in general: Tetrazolium assays rely on reduction of a dye to a coloured formazan, in cell work by metabolically active cells.
For data set [7], the target named is T1, Type-1 angiotensin II receptor (Homo sapiens) (UniProt P30556).
T1 sequence (whole entry): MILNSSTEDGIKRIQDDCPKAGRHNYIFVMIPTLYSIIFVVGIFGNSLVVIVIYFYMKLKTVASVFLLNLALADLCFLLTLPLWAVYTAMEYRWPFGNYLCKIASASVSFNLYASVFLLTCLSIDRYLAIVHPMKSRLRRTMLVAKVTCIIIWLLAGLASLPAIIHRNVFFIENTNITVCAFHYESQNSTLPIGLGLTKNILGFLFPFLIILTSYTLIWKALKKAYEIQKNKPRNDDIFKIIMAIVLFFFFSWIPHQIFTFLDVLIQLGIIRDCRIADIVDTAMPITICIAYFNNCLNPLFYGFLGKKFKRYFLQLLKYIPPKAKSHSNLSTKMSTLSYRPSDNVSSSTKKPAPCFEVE
Nature of the data set: (§1) Inhibition of human AT1R expressed in HEK293 cells using […] incubated for 1 hr followed by addition of angiotensinII and substrate by BRET assay. The settings on record: dose 0.3-100 µM. The format is cell-based. For orientation: In BRET a luciferase serves as donor, and the signal depends on an acceptor being close.

Data set [8] addresses T2, GNAQ/GNA11 (Homo sapiens) (UniProt P50148+P29992). The data set is described as follows: Inhibition of Galphaq/11 (unknown origin) expressed in CHO-M1 cells at 10 uM preincubated for 1 hr followed by carbachol stimulation for 30 mins and measured after 1 hr by IP1 accumulation based HTRF assay relative to control. To be noted: time 150.0 min. In kind it is cell-based.
The subject of a further data set is SK-MEL-2. Nature of the data set: Antiproliferative activity against human SK-MEL-2 cells assessed as reduction in cell viability at 10 uM measured after 72 hrs by CCK-8 method. In kind it is functional, cell-based.
Data set [9] deals with MP41. The data set is described as follows: Antiproliferative activity against human MP41 cells assessed as reduction in cell viability at 1.25 uM measured after 72 hrs by CCK-8 method. In kind it is functional, cell-based.
Data set [10] has as its target T2, GNAQ/GNA11 (Homo sapiens). The data set is described as follows: Binding affinity to Galphaq/11 (unknown origin) assessed as increase in thermal stability at 10 uM incubated for 1 hr by CETSA. The format is protein assay.
The test system of data set [11] is MP41. Nature of the data set: Antiproliferative activity against human MP41 cells transfected with SiGNA11 assessed as reduction in cell viability measured after 72 hrs by CCK-8 method. To be noted: dose <= 10.0 µM. The format is functional, cell-based.
For the next data set, the system named is A-375. Nature of the data set: Antiproliferative activity against human A-375 cells assessed as reduction in cell viability at 10 uM measured after 72 hrs by CCK-8 method. The format is functional, cell-based.
The target in data set [12] is Transcriptional coactivator YAP1 (Homo sapiens) (UniProt P46937). Nature of the data set: Activation of YAP phosphorylation in human MP41 cells at 20 uM by Western blot analysis. In kind it is cell-based. The settings on record: filed as activator, time <= 24.0 hrs, TDE = time-dependent effect.
The target is the same in data set [13]. Nature of the data set: Activation of YAP phosphorylation in human MP41 cells incubated for 24 hrs by Western blot analysis. The settings on record: filed as activator, dose 3-20 µM. The format is cell-based.
Data set [14] deals with T3, Mitogen-activated protein kinase; ERK1/ERK2 (Homo sapiens) (UniProt P27361+P28482). Nature of the data set: Inhibition of ERK1/2 phosphorylation in human MP41 cells incubated for 24 hrs by Western blot analysis. The format is cell-based. The settings on record: dose 3-20 µM.
For data set [15], the target named is T3, Mitogen-activated protein kinase; ERK1/ERK2 (Homo sapiens). Nature of the data set: Inhibition of ERK1/2 phosphorylation in human MP41 cells at 20 uM by Western blot analysis. To be noted: time <= 24.0 hrs, TDE = time-dependent effect. The format is cell-based.
Data set [16] has the same target. Nature of the data set: Inhibition of ERK1/2 phosphorylation in human MP41 cells incubated for 4 hrs by Western blot analysis. The format is cell-based. To be noted: dose 3-20 µM.
Data set [17] addresses Transcriptional coactivator YAP1 (Homo sapiens) (UniProt P46937). Nature of the data set: Activation of YAP phosphorylation in human MP41 cells incubated for 4 hrs by Western blot analysis. In kind it is cell-based. To be noted: filed as activator, dose 3-20 µM.
For data set [18], the system named is MP41. Nature of the data set: Inhibition of cell migration in human MP41 cells incubated for 24 hrs by wound healing assay. To be noted: dose 3-10 µM. In kind it is functional, cell-based.
Data set [19] relates to MP41. Nature of the data set: Inhibition of cell invasion in human MP41 cells measured after 48 hrs by crystal violet staining based Boyden chamber invasion assay. The format is functional. The settings on record: dose 3-10 µM.
The nature of data set [20]: Antiproliferative activity against human 921 cells assessed as reduction in cell viability measured after 72 hrs by CCK-8 method. To be noted: Homo sapiens, 921, 72 h. In kind it is functional, cell-based.
Data set [21] has as its target T4, Type-1 angiotensin II receptor (Homo sapiens, UniProt P30556).
T4 sequence (P30556 whole entry): T1 sequence (whole entry)
Described as §1. In kind it is cell-based.

A short description of data set [22]: Inhibition of Galphaq (unknown origin) preincubated for 1 hr followed by carbachol stimulation for 30 mins and measured after 1 hr by IP1 accumulation based HTRF assay. Also on record: species or system Homo sapiens.
Another data set relates to BEAS-2B. The data set is described as follows: Cytotoxicity against human BEAS-2B cells assessed as reduction in cell viability at 10 uM measured after 72 hrs by CCK-8 method. In kind it is toxicity, cell-based.
The test system of another data set is HEK-293T. Nature of the data set: Cytotoxicity against HEK293T cells assessed as reduction in cell viability at 10 uM measured after 72 hrs by CCK-8 method. The format is toxicity, cell-based. To be noted: human.
Data set [23] can be described thus: Antiproliferative activity against human MP41 cells assessed as reduction in cell viability measured after 72 hrs by CCK-8 method. The format is functional, cell-based. The settings on record: MP41, 72 h.
The test system of data set [24] is MP41. The data set is described as follows: Antiproliferative activity against human MP41 cells assessed as reduction in cell viability at 10 uM measured after 72 hrs by CCK-8 method. In kind it is functional, cell-based.
The subject of data set [25] is 921. The data set is described as follows: Antiproliferative activity against human 921 cells assessed as reduction in cell viability at 10 uM measured after 72 hrs by CCK-8 method. The format is functional, cell-based.
Data set [26] concerns MP41. Nature of the data set: Inhibition of colony formation in human MP41 cells assessed as inhibition of cell proliferation at 1 uM incubated for 14 days with replacement with fresh medium for every 3 days by crystal violet staining based analysis. In kind it is functional. To be noted: time 14.0 day.
Data set [27] relates to MP41. The data set is described as follows: Inhibition of cell migration in human MP41 cells at 1 uM incubated for 24 hrs by wound healing assay. In kind it is functional, cell-based.

Transcriptional coactivator YAP1 (Homo sapiens), sequence (P46937 whole entry): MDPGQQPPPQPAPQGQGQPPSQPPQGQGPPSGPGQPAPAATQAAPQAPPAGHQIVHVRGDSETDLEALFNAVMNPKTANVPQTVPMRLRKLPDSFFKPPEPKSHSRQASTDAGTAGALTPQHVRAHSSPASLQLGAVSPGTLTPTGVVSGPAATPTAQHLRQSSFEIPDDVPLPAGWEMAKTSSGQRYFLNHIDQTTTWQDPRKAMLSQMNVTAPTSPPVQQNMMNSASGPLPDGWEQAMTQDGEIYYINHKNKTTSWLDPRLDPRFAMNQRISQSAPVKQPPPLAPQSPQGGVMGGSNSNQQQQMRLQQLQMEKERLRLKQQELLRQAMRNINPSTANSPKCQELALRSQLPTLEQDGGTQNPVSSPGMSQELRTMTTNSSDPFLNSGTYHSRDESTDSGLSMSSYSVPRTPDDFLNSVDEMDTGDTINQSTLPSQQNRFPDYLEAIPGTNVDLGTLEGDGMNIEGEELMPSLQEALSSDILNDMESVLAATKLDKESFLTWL
T3 sequence (P27361 whole entry, looked up): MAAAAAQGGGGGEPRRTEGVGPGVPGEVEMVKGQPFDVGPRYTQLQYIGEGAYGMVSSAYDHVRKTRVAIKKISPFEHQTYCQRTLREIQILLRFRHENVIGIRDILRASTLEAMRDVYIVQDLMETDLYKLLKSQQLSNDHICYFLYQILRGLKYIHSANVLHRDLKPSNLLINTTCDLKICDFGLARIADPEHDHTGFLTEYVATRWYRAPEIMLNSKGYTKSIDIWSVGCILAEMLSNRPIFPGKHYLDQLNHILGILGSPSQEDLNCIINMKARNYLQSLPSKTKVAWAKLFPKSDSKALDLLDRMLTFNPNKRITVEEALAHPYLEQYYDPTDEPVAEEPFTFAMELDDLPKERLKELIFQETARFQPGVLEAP
T3 sequence (P28482 whole entry, looked up): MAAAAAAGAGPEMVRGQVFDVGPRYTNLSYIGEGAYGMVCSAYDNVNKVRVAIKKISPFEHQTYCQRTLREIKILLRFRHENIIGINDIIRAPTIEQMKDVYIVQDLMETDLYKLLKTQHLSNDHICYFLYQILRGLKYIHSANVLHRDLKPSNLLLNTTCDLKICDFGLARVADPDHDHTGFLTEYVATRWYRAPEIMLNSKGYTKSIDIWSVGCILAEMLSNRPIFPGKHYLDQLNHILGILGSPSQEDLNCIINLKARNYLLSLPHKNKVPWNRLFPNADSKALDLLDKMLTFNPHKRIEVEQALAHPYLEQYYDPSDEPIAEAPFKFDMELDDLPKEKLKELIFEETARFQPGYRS

In the case of `CC[C@H](C)[C@H](N)C(=O)N1CCn2cc(-c3ccc4c(c3)CCCC4)nc2[C@@H]1CC1CCCCC1.O=C(O)C(F)(F)F`, the CLint scaled in data set [1] stood at 16.4 mL/min/kg. Besides, in [2], the remaining at 168 h was 98.5%. The molecule also had a solubility in data set [3] of 9190 µg/mL. For the same molecule, the half-life in data set [4] was determined as 1.77 h.
In the case of `CC[C@H](C)[C@H](N)C(=O)N1CCn2cc(-c3ccc4c(c3)CCCC4)nc2[C@@H]1CC1CCCCC1` [listing 1 of 2 here], the inhibition result was “Dose-Dependent Effect” in the data set with MP41 [5]; “Dose-Dependent Effect” in [7]; 18.3% in data set [8]; “Dose-Dependent Effect” in data set [14]; “Tde” in data set [15]; “Dose-Dependent Effect” in data set [16]. In addition, the inhibition entry in the data set with MP41 [18] and in the data set with MP41 [19] was “Dose-Dependent Effect” throughout. The outcome (in the data set on 921 [6]; in the data set on MP41 [9]; in data set [10]) was Active. The result in the data set on SK-MEL-2 and in the data set with A-375 was inactive. In addition, the Activity entry with MP41 [11] was “Dose-Dependent Effect”; in [12], “Tde”; in data set [13], “Dose-Dependent Effect”; in [17] it was “Dose-Dependent Effect”.
Consider `CC[C@H](C)[C@H](N)C(=O)N1CCn2cc(-c3ccc4c(c3)CCCC4)nc2[C@@H]1CC1CCCCC1` [listing 2 of 2 here], for which the 50% inhibitory concentration (IC50) in data set [20] turned out to be 6.8 µM; in [21] it was 8.9 µM; in [22], 23 µM; in data set [23] it was 3.5 µM. Moreover, the Activity result in the data set on BEAS-2B and in the data set on HEK-293T was “Non-Toxic” each time.
On to `N[C@@H](CSSC[C@H](N)C(=O)N1CCn2cc(-c3ccccc3)nc2[C@@H]1CC1CCCCC1)C(=O)N1CCn2cc(-c3ccccc3)nc2[C@@H]1CC1CCCCC1`, for which the IC50 was found to be 14.3 µM in [20] and 10.2 µM in data set [23]. In data set [8], this molecule yielded an inhibition of 10.9%. Besides, the outcome in the data set on SK-MEL-2, in the data set with A-375, in the data set with MP41 [24] and in the data set with 921 [25] was Active. Moreover, the inhibition entry with MP41 [26] and with MP41 [27] was “Active” in each case.
